Patent publication US20230250096A1, “SUBSTITUTED PHENYL-1H-PYRROLO[2,3-c] PYRIDINE DERIVATIVES” (Janssen Pharmaceutica NV, priority 2021, published 2023)
Read-outs that look alike come from different tables or passages of the source.

Tests used:
[1] = target: T1, menin/MLL (terbium chelate-labeled menin, FITC-MBM1 peptide) (Homo sapiens, UniProt O00255, T541A); test: Menin/MLL homogenous time-resolved fluorescence (HTRF) assay; type: binding; details: 30 min incubation
T1 construct: Menin (a.a 1-610-6xhis tag, 2.3 mg/mL in 20 mM Hepes)
T1 sequence (O00255 with tags, fused parts or gaps T541A): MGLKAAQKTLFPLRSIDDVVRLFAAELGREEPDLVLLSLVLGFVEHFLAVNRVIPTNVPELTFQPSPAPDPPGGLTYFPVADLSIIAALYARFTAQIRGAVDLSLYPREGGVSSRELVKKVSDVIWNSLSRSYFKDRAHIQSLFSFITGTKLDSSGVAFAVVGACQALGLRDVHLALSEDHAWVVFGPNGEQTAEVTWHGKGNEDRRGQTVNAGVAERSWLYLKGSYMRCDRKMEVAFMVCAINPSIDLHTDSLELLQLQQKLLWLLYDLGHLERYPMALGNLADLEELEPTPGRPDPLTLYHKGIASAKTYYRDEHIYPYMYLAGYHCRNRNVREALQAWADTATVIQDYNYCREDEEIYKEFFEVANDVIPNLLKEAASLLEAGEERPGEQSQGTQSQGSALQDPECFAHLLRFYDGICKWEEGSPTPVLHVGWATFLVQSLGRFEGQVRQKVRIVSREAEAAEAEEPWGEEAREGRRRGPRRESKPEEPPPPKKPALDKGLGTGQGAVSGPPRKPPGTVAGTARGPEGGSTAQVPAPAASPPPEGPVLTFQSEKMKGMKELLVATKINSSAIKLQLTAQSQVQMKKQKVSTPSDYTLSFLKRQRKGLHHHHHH
Summary of the method: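 Terbium-labeled menin (a.a. 1-610, His-tagged; […]) pre-incubated 30 min with compound, then 75 nM FITC-MBM1 peptide added for 15 min at ambient temperature in Tris pH 7.5 buffer, 0.5% DMSO. HTRF 520/490 nm ratio read; IC50 from 11-point four-fold titrations, typically from 10 μM.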

MOLM14 cells = test: Proliferation assay (spheroid confluence, 8 days), MOLM14; type: cell-based, human; details: read-out: spheroid assay_MOLM14 IC50
Procedure: (§1) The anti-proliferative effect of menin/MLL protein/protein interaction inhibitor test compounds was assessed in human leukemia cell lines. The cell line MOLM14 harbors a MLL translocation and expresses the MLL fusion protein MLL-AF9, respectively, as well as the wildtype protein from the second allele. OCI-AML3 cells that carry the NPM1c gene mutation were also tested. […] KO-52 was used as a control cell line containing two MLL (KMT2A) wildtype alleles in order to exclude compounds that display general cytotoxic effects.
(§2) MOLM14 cells were cultured in RPMI-1640 (Sigma Aldrich) supplemented with 10% heat-inactivated fetal bovine serum (HyClone), 2 mM L-glutamine (Sigma Aldrich) and 50 μg/ml gentamycin (Gibco). KO-52 and OCI-AML3 cell lines were propagated in alpha-MEM (Sigma Aldrich) supplemented with 20% heat-inactivated fetal bovine serum (HyClone), 2 mM L-glutamine (Sigma Aldrich) and 50 μg/ml gentamycin (Gibco).
(§3) In order to assess the anti-proliferative effects, 200 MOLM14 cells, 200 OCI-AML3 cells or 300 KO-52 cells were seeded in 200 μl media per well in 96-well round bottom, ultra-low attachment plates (Costar, catalogue number 7007). Cell seeding numbers were chosen based on growth curves to ensure linear growth throughout the experiment. Test compounds were added at different concentrations and the DMSO content was normalized to 0.3%. Cells were incubated for 8 days at 37° C. and 5% CO2. Spheroid like growth was measured in real-time by live-cell imaging (IncuCyteZOOM, Essenbio, 4×objective) acquiring images at day 8. Confluence (%) as a measure of spheroid size was determined using an integrated analysis tool.
(§4) In order to determine the effect of the test compounds over time, the confluence in each well as a measure of spheroid size, was calculated. Confluence of the highest dose of a reference compound was used as baseline for the LC (Low control) and the confluence of DMSO treated cells was used as 0% cytotoxicity (High Control, HC).
(§5) Absolute IC50 values were calculated as percent change in confluence as follows:
(§6) LC=Low Control: cells treated with e.g. 1 μM of the cytotoxic agent staurosporin, or e.g. cells treated with a high concentration of an alternative reference compound
(§7) HC=High Control: Mean confluence (%) (DMSO treated cells)
(§8) % Effect=100−(100*(Sample−LC)/(HC−LC))
(§9) GraphPad Prism (version 7.00) was used to calculate the IC50. Dose-response equation was used for the plot of % Effect vs Log10 compound concentration with a variable slope and fixing the maximum to 100% and the minimum to 0%.

KO-52 cells = test: Proliferation assay (spheroid confluence, 8 days), KO-52 control cell line; type: cell-based, human; details: Homo sapiens, read-out: spheroid assay_KO-52 IC50
Procedure: as §1, §2, §3, §4, §5, §6, §7, §8, §9

OCI-AML3 cells = test: Proliferation assay (spheroid confluence, 8 days), OCI-AML3; type: cell-based, human; details: read-out: spheroid assay_OCI-AML3 IC50
Procedure: as §1, §2, §3, §4, §5, §6, §7, §8, §9

MEIS1 mRNA expression = MEIS1 mRNA expression assay (Quantigene Singleplex) in MOLM14 cells; type: cell-based, human; details: 48 hours incubation
Summary of the method: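 MOLM14 cells, 3,750/well, exposed to increasing compound concentrations for 48 h. MEIS1 mRNA measured by QuantiGene Singleplex branched-DNA hybridization (lysis 45 min, hybridization 18–22 h, both 55 °C), normalized to RPL28. IC50 fitted to background-corrected fold change versus DMSO.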

IC50 [1]	IC50 (MOLM14 cells; Homo sapiens, MOLM-14, MOLM14)	IC50 (OCI-AML3 cells; Homo sapiens, OCI-AML-3, OCI-AML3)	IC50 (OCI-AML3 cells; OCI-AML3)	IC50 (MEIS1 mRNA expression)	IC50 (MEIS1 mRNA expression; Homo sapiens, MOLM-14, 48 h)	IC50 (MOLM14 cells; MOLM14)	SMILES	IC50 (KO-52 cells)
0.013 nM	2 nM						CCN(C(=O)c1cc(F)ccc1-n1cc(CC2CN(C(C(C)C)[C@H]3C[C@H](N4C[C@H]5CN(C(C)=O)C[C@@H]5C4)C3)C2)c2c(C)cncc21)C(C)C (mixture of isomers) [Compound 38b]	1200 nM
0.041 nM		8 nM					CNC(=O)N1CCC(CN2CC[C@H](Cc3cn(-c4ccc(F)cc4C(=O)N(C)C(C)C)c4cncc(C)c34)C2)CC1 (single isomer, unassigned) [Compound 101]	3100 nM
0.238 nM			236 nM	139 nM			Cc1cncc2c1c(C[C@@H]1CCN(CC3CCNC(=O)CC3)C1)cn2-c1ccc(F)cc1C(=O)N1CCC[C@H]1C (single isomer, unassigned) [Compound 353b]	
0.059 nM					21 nM		CCN(C(=O)c1cc(F)ccc1-n1cc(CC2CN(C(C(C)C)[C@H]3C[C@@H](N4CCN(C(C)=O)CC4)C3)C2)c2c(C)cncc21)C(C)C (stereo partly drawn) [Compound 35a]	1500 nM
0.168 nM	92 nM						CN=S(=O)(c1cc(F)ccc1-n1cc(CC2CN(CC3CCOCC3)C2)c2c(C)cncc21)C(C)C (stereo not drawn) [Compound 79]	9400 nM
0.116 nM	99 nM						Cc1cncc2c1c(CC1CN(CC3CCOCC3)C1)cn2-c1ccc(F)cc1S(=N)(=O)C(C)C (stereo not drawn) [Compound 80]	7200 nM
0.054 nM	539 nM				149 nM		Cc1cncc2c1c(CC1CN(CC3CCC(=O)NC3)C1)cn2-c1ccc(F)cc1C(=O)N(C)C(C)C (stereo not drawn) [Compound 120]	
~0.17 nM	15 nM				49 nM		CNC(=O)[C@H]1CC[C@H](CN2CC(C)(Cc3cn(-c4ccc(F)cc4C(=O)N(C)C(C)C)c4cncc(C)c34)C2)CC1 [Compound 140]	
0.086 nM	88 nM				238 nM		Cc1cncc2c1c(C[C@@H]1CCN(C[C@@H]3CCCCN3)C1)cn2-c1ccc(F)cc1C(=O)N(C)C(C)C [Compound 148]	
0.14 nM	91 nM				244 nM		COC(=O)[C@H]1CC[C@H](CN2CC[C@@H](Cc3cn(-c4ccc(F)cc4C(=O)N(C)C(C)C)c4cncc(C)c34)C2)CC1 [Compound 154]	
0.051 nM	49 nM				54 nM		Cc1cncc2c1c(CC1CN(C[C@H]3CC[C@H](C(=O)NCCC#N)CC3)C1)cn2-c1ccc(F)cc1C(=O)N(C)C(C)C [Compound 155]	
0.02 nM	2 nM				6 nM		Cc1cncc2c1c(C[C@H]1CCN(CC3CCN(C(=O)NC4CC4)CC3)C1)cn2-c1ccc(F)cc1C(=O)N(C)C(C)C [Compound 157]	
0.045 nM	6 nM				24 nM		COCCNC(=O)[C@H]1CC[C@H](CN2CC(Cc3cn(-c4ccc(F)cc4C(=O)N(C)C(C)C)c4cncc(C)c34)C2)CC1 [Compound 158]	
0.019 nM	3 nM				10 nM		Cc1cncc2c1c(CC1CN(C[C@H]3CC[C@H](C(=O)NC4CC4)CC3)C1)cn2-c1ccc(F)cc1C(=O)N(C)C(C)C [Compound 159]	
0.167 nM	53 nM				256 nM		Cc1cncc2c1c(C[C@@H]1CCN(C3CCN(S(C)(=O)=O)CC3)C1)cn2-c1ccc(F)cc1C(=O)N(C)C(C)C [Compound 161]	
0.1 nM				16 nM		8 nM	CNC(=O)N1CCC(CN2CC[C@H](Cc3cn(-c4ccc(F)cc4C(=O)N(C)C(C)C)c4cncc(C)c34)C2)CC1 [Compound 168]	
0.155 nM	14 nM				79 nM		Cc1cncc2c1c(C[C@H]1CCN(CC3CCN(C(=O)N(C)C)CC3)C1)cn2-c1ccc(F)cc1C(=O)N(C)C(C)C [Compound 170]	
0.134 nM	11 nM				18 nM		COCCN(C)C(=O)N1CCC(CN2CC[C@@H](Cc3cn(-c4ccc(F)cc4C(=O)N(C)C(C)C)c4cncc(C)c34)C2)CC1 [Compound 172]	
0.056 nM	5 nM				32 nM		CON(C)C(=O)N1CCC(CN2CC[C@@H](Cc3cn(-c4ccc(F)cc4C(=O)N(C)C(C)C)c4cncc(C)c34)C2)CC1 [Compound 173]	
0.048 nM	7 nM				34 nM		Cc1cncc2c1c(C[C@@H]1CCN(CC3CCN(C(=O)N4CCOCC4)CC3)C1)cn2-c1ccc(F)cc1C(=O)N(C)C(C)C [Compound 174]	
0.109 nM	35 nM				268 nM		CC(=O)N1CCC(O)(CN2CC[C@@H](Cc3cn(-c4ccc(F)cc4C(=O)N(C)C(C)C)c4cncc(C)c34)C2)CC1 [Compound 177]	
0.06 nM	26 nM						Cc1cncc2c1c(C[C@@H]1CCN(CC3CCC(=O)N(C)CC3)C1)cn2-c1ccc(F)cc1C(=O)N(C)C(C)C (stereo partly drawn) [Compound 184]	7400 nM
0.155 nM	179 nM				552 nM		CC(=O)N1CCC(CN2CC[C@@H](Cc3cn(-c4ccc(F)cc4C(=O)N4CCC(O)C4(C)C)c4cncc(C)c34)C2)CC1 (stereo partly drawn) [Compound 313]	
0.055 nM	6 nM				19 nM		[2H]C([2H])([2H])N(C(=O)c1cc(F)ccc1-n1cc(C[C@@H]2CCN(CC3CCN(C(C)=O)CC3)C2)c2c(C)cncc21)C(C)C [Compound 314]	
0.257 nM	232 nM				413 nM		COCC1CCCN1C(=O)c1cc(F)ccc1-n1cc(C[C@@H]2CCN(CC3CCN(C(C)=O)CC3)C2)c2c(C)cncc21 (stereo partly drawn) [Compound 321]	
0.152 nM	323 nM				~547 nM		CC(=O)N1CCC(CN2CC[C@@H](Cc3cn(-c4ccc(F)cc4C(=O)N4CCC[C@@H]4CO)c4cncc(C)c34)C2)CC1 [Compound 322]	
0.08 nM	142 nM				~146 nM		CC(=O)N1CCC(CN2CC[C@@H](Cc3cn(-c4ccc(F)cc4C(=O)N4CCC[C@H]4CO)c4cncc(C)c34)C2)CC1 [Compound 323]	
0.038 nM	16 nM				23 nM		CC(=O)N1CCC(CN2CC[C@@H](Cc3cn(-c4ccc(F)cc4C(=O)N(CCO)C(C)C)c4cncc(C)c34)C2)CC1 [Compound 326]	
0.166 nM	79 nM				358 nM		Cc1cncc2c1c(C[C@@H]1CCN(CC3CCOCC3)C1)cn2-c1ccc(F)cc1C(=O)N1C[C@H](O)C[C@H]1C [Compound 359]	
